# Columns and labels:
# [1] = in vivo; cited from earlier work
# PTZ-induced seizures = experiment: Anticonvulsant action in the pentylenetetrazol (PTZ) seizure model after 15-day oral pretreatment; type: in vivo, C57BL/6 male mice
# Description: The anticonvulsant action of a preparation according to the invention, consisting of alpha-lactalbumin and sodium butyrate, was evaluated in comparison with that of the single components alpha-lactalbumin and sodium butyrate in the above-mentioned animal model, using the convulsant agent pentylenetetrazol
# The experiment was carried out on groups of 10 C57BL/6 male mice (Charles River Italy) for each tested dose (control groups of 10 C57BL/6 male mice were also used).
# The animals of all groups were subcutaneously administered pentylenetetrazol (65 mg/kg) at the end of a 15-day pretreatment with sodium butyrate, alpha-lactalbumin, alpha-lactalbumin+sodium butyrate or vehicle, i.e. water (control), respectively.
# This pretreatment was carried out by oral administration of a solution of either one of sodium butyrate, alpha-lactalbumin, alpha-lactalbumin+sodium butyrate in the vehicle, consisting of water, and of the vehicle (water) alone.
# Firstly, three groups of 10 mice were orally administered 30 mg/day, 100 mg/day and 250 mg/day of sodium butyrate respectively, in the form of an aqueous solution contained in the bottle of the cage, for 15 days. The bottle of the cage of the control group (10 mice) only contained water.
# On the 16th day, the animals of the four groups were subcutaneously administered 65 mg/kg of pentylenetetrazol.
# Then, three groups of 10 mice were orally administered 125 mg/day, 250 mg/day and 375 mg/day of alpha-lactalbumin respectively, in the form of an aqueous solution contained in the bottle of the cage, for 15 days. The bottle of the cage of the control group (10 mice) only contained water.
# On the 16th day, the animals of the four groups were subcutaneously administered 65 mg/kg of pentylenetetrazol (PTZ).
# Finally, a first group of 10 mice was orally administered 125 mg alpha-lactalbumin+100 mg sodium butyrate per day, a second group of 10 mice was orally administered 250 mg alpha-lactalbumin+100 mg sodium butyrate per day, a third group of 10 mice was orally administered 375 mg alpha-lactalbumin+100 mg sodium butyrate per day, in the form of an aqueous solution contained in the bottle of the cage, for 15 days. The bottle of the cage of the control group (10 mice) only contained water.
# audiogenic seizures = experiment: Protection against seizures in experimental models of epilepsy (audiogenic seizures in genetically epilepsy-prone-9 rats); type: in vivo; conditions: different experimental models of epilepsy; no increase on continuing up to 12 days; not dose dependent
# Text: Also the results obtained both in experimental models and in clinical trials confirm the need of repeated administrations for several days.
# [2] = cited from earlier work
# [3] = test system: seizures induced by acoustic stimulation; conditions: after three weeks of treatment; cited from earlier work
compound,measurement,setting,value
CCCC(=O)O [butyric acid],cerebral uptake,[1],~0.006%
"CCCC(=O)[O-].[Na+] [sodium butyrate, reference compound]",animals that experienced seizures induced by pentylenetetrazol,"PTZ-induced seizures; sodium butyrate 30, 100 or 250 mg/day oral in drinking water for 15 days, PTZ 65 mg/kg s.c. on day 16, no significant difference from control",100%
same,activity towards the seizures induced by pentylenetetrazol,PTZ-induced seizures; sodium butyrate alone,devoid of any activity
alpha-lactalbumin,effect on percentage of mice with PTZ-induced seizures,"PTZ-induced seizures; alpha-lactalbumin 125 mg/day alone, oral for 15 days",does not significantly decrease
same,animals showing PTZ-induced seizures,"PTZ-induced seizures; alpha-lactalbumin 375 mg/day oral for 15 days, PTZ 65 mg/kg s.c. on day 16",less than 40%
same,course of percentage of animals with PTZ-induced seizures over dose,"PTZ-induced seizures; alpha-lactalbumin 125, 250, 375 mg/day oral for 15 days",decrease in a dose-dependent fashion
same,days of repeated administrations until protective action against seizures occurs,audiogenic seizures,at least 6 days
same,time after oral administration to demolition into medium-small peptides in the stomach,[2],15 min
same,duration of protective effect against seizures after suspension of treatment,[3],at least one month

# Reference: patent US11554162B2, “Pharmaceutical or food supplement preparation based on alpha-lactalbumin” (KOLFARMA S.R.L., priority 2018, dated 2023)
